How the values were obtained:
Assay type in all cases: cell-based
[1] = target: T1, human TLR7 (Homo sapiens, UniProt Q9NYK1); assay: TLR7 inhibition reporter assay (HEK-Blue, SEAP); details: HEK-Blue cells overexpressing human TLR7, gardiquimod 7.5 μM, 22 hour incubation
T1 construct: host or cells: HEK-Blue cells
T1 sequence (Q9NYK1 27-1049): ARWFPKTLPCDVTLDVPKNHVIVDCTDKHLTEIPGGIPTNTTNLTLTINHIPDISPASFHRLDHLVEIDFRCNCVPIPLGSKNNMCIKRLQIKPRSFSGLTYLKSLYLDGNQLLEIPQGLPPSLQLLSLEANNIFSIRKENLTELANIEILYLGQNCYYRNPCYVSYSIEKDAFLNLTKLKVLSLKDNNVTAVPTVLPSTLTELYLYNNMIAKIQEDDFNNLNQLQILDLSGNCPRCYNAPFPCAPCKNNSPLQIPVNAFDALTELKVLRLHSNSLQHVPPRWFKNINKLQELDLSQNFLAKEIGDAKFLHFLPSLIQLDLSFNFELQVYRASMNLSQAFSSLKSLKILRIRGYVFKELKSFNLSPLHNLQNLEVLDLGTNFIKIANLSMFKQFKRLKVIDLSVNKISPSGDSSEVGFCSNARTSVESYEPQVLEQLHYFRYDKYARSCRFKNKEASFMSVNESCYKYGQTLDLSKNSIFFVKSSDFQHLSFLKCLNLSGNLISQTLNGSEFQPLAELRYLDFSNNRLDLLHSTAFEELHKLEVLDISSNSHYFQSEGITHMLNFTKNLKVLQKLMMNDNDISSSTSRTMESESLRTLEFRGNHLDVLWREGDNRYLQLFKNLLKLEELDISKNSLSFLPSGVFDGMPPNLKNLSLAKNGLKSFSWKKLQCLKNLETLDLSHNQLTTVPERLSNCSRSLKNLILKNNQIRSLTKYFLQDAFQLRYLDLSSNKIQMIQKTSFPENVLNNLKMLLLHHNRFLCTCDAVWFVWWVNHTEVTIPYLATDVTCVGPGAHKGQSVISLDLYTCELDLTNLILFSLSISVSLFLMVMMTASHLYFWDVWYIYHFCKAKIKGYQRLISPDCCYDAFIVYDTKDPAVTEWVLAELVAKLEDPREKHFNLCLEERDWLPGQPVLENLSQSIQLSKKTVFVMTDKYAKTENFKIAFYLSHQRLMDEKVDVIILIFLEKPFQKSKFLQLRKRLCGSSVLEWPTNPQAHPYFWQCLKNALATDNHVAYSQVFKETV
Method in brief: (§1)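 Compound treatment: 30 min, RT, 0.05 nM–50 μM final. Agonist: TLR7 gardiquimod 7.5 μM; TLR8 R848 15.9 μM; TLR9 ODN2006 5 nM. Incubation 22 h, 37 °C, 5% CO2. Readout SEAP, HEK-Blue Detection.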

[2] = target: T2, human TLR9 (Homo sapiens, UniProt Q9NR96); assay: TLR9 inhibition reporter assay (HEK-Blue, SEAP); details: HEK-Blue cells overexpressing human TLR9, ODN2006 5 nM, 22 hour incubation
T2 construct: host or cells: HEK-Blue cells
T2 sequence (Q9NR96 26-1032): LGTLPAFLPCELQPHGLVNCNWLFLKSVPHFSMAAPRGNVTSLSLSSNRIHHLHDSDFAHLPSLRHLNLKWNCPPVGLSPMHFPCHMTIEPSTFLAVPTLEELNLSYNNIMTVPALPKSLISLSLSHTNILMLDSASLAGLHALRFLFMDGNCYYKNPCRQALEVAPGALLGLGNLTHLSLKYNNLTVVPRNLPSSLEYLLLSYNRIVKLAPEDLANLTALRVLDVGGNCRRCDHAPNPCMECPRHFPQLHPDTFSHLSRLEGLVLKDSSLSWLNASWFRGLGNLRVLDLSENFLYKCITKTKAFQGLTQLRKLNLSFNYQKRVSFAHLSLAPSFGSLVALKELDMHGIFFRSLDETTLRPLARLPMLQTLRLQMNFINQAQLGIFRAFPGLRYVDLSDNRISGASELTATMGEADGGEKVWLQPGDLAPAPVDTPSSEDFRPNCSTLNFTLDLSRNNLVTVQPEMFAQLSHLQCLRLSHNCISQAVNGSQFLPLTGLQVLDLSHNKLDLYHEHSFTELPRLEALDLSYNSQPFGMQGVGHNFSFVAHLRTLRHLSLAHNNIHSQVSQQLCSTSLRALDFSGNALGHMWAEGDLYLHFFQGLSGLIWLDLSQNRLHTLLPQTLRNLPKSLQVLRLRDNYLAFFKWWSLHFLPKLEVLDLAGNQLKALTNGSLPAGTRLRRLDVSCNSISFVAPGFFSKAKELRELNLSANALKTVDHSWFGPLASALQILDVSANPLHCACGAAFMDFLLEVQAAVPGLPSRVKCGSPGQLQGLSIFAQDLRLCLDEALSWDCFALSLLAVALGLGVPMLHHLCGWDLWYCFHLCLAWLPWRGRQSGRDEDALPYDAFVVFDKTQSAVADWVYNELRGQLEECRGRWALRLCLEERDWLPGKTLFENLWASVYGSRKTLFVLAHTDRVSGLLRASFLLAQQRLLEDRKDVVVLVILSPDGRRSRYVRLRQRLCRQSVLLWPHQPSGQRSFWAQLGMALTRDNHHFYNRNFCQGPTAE
Method in brief: as §1

[3] = target: T3, human TLR8 (Homo sapiens, UniProt Q9NR97); assay: TLR8 inhibition reporter assay (HEK-Blue, SEAP); details: HEK-Blue cells overexpressing human TLR8, R848 15.9 μM, 22 hour incubation
T3 construct: host or cells: HEK-Blue cells
T3 sequence (Q9NR97 27-1041): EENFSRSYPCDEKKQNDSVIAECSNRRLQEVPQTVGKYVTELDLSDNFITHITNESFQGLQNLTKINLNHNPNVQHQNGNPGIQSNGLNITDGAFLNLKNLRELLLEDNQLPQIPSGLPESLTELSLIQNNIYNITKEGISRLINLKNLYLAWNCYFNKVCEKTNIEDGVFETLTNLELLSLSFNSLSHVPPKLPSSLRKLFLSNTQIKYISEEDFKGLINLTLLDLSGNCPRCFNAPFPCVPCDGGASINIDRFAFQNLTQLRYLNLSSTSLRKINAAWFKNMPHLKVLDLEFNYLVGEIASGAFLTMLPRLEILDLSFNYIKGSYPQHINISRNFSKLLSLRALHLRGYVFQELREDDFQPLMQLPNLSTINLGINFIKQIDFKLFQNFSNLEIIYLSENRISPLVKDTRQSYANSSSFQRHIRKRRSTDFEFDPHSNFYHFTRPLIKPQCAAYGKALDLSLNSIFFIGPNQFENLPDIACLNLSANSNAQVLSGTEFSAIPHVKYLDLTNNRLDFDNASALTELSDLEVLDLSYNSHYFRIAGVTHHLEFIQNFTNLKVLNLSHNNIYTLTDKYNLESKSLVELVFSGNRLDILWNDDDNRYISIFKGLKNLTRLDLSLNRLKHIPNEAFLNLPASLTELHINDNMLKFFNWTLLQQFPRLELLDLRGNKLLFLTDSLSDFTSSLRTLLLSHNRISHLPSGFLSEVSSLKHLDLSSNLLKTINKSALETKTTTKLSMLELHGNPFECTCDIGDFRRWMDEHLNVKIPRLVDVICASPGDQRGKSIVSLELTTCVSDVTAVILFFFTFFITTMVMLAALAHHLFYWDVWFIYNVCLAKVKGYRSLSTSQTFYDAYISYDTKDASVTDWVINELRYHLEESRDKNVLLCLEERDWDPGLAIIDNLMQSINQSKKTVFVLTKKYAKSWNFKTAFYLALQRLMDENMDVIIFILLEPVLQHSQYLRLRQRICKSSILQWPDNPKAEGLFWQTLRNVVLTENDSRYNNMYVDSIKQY
Method in brief: as §1

Compound | IC50 [1] | IC50 [2] | IC50 [3]
Cc1c(-c2[nH]c3ccc(C4CCN(CC(=O)N(C)C)CC4)cc3c2C(C)C)cn2cnnc2c1Cl [Example 49, 2-(4-(2-(8-chloro-7-methyl-[1,2,4]triazolo[4,3-a]pyridin-6-yl)-3-isopropyl-1H-indol-5-yl)piperidin-1-yl)-N,N-dimethylacetamide] | 0.0015 µM | 0.957 µM | 0.0311 µM
Cc1cc(-c2[nH]c3ccc(C4CCN(Cc5ccn(C)n5)CC4)cc3c2C(C)C)cn2c(C)nnc12 [Example 71, 6-(3-isopropyl-5-(1-((1-methyl-1H-pyrazol-3-yl)methyl)piperidin-4-yl)-1H-indol-2-yl)-3,8-dimethyl-[1,2,4]triazolo[4,3-a]pyridine] | 0.0127 µM | 1.13 µM | 0.0018 µM
CC(C)c1c(-c2ccc3nncn3c2)[nH]c2ccc(C3CCN(C4COC4)CC3)cc12 [Example 65, 6-(3-isopropyl-5-(1-(oxetan-3-yl)piperidin-4-yl)-1H-indol-2-yl)-[1,2,4]triazolo[4,3-a]pyridine] | 0.0218 µM | 15.1 µM | 0.341 µM
Cc1cc2nncn2cc1-c1[nH]c2ccc(C3CCN(C4CCOCC4)CC3)cc2c1C(C)C [Example 68, 6-(3-isopropyl-5-(1-(tetrahydro-2H-pyran-4-yl)piperidin-4-yl)-1H-indol-2-yl)-7-methyl-[1,2,4]triazolo[4,3-a] pyridine] | 0.0207 µM | 1.25 µM | 0.139 µM
Cc1c(-c2[nH]c3ccc(C4CCN(Cc5cn(C)nn5)CC4)cc3c2C(C)C)cn2cnnc2c1C [Example 83, 6-(3-isopropyl-5-(1-((1-methyl-1H-1,2,3-triazol-4-yl)methyl)piperidin-4-yl)-1H-indol-2-yl)-7,8-dimethyl-[1,2,4]triazolo[4,3-a]pyridine] | 0.0034 µM | 0.875 µM | 0.0072 µM
Cc1c(-c2[nH]c3ccc(C4CCN(C5COC5)CC4)cc3c2C(C)C)cn2cnnc2c1Cl [Example 82, 8-chloro-6-(3-isopropyl-5-(1-(oxetan-3-yl)piperidin-4-yl)-1H-indol-2-yl)-7-methyl-[1,2,4] triazolo[4,3-a]pyridine] | 0.0049 µM | ≥ 50 µM | 0.153 µM
Cc1c(-c2[nH]c3ccc(C4C[C@H]5CC[C@@H](C4)N5)cc3c2C(C)C)cn2cnnc2c1C (single isomer, unassigned) [Example 117, 6-(5-(8-azabicyclo[3.2.1]octan-3-yl)-3-isopropyl-1H-indol-2-yl)-7,8-dimethyl-[1,2,4]triazolo[4,3-a]pyridine] | 0.0316 µM | 6.09 µM | 0.494 µM
Cc1c(-c2[nH]c3ccc(C4CCN(CCCC(F)(F)F)CC4)cc3c2C(C)C)cn2cnnc2c1C [Example 44, 6-(3-isopropyl-5-(1-(4,4,4-trifluorobutyl)piperidin-4-yl)-1H-indol-2-yl)-7,8-dimethyl-[1,2,4]triazolo[4,3-a]pyridine] | 0.0017 µM | 1.75 µM | 0.0065 µM

Further molecules by falling IC50 [1], results first:

IC50 [1] | IC50 [2] | IC50 [3] | Compound
0.0659 µM | 0.685 µM | 0.715 µM | Cc1cc2nncn2cc1-c1[nH]c2ccc(C3CCN(CC(=O)N(C)C)CC3)cc2c1C(C)C [Example 18, 2-(4-(3-isopropyl-2-(7-methyl-[1,2,4]triazolo[4,3-a]pyridin-6-yl)-1H-indol-5-yl)piperidin-1-yl)-N,N-dimethylacetamide]
0.0051 µM | 10.2 µM | 0.0117 µM | Cc1c(-c2[nH]c3ccc(C4CCN(C5CCOC5)CC4)cc3c2C(C)C)cn2cnnc2c1C (single isomer, unassigned) [Example 103, 6-(3-isopropyl-5-(1-(tetrahydrofuran-3-yl)piperidin-4-yl)-1H-indol-2-yl)-7,8-dimethyl-[1,2,4]triazolo[4,3-a]pyridine]
0.0025 µM | 1.99 µM | 0.0067 µM | Cc1c(-c2[nH]c3ccc(C4CCN(C5CCOC(C)(C)C5)CC4)cc3c2C(C)C)cn2cnnc2c1C (stereo not drawn) [Example 85, 6-(5-(1-(2,2-dimethyltetrahydro-2H-pyran-4-yl)piperidin-4-yl)-3-isopropyl-1H-indol-2-yl)-7,8-dimethyl-[1,2,4]triazolo[4,3-a]pyridine]
0.0009 µM | 0.565 µM | 0.0101 µM | Cc1c(-c2[nH]c3ccc(C4CCN(CCN5CCCS5(=O)=O)CC4)cc3c2C(C)C)cn2cnnc2c1Cl [Example 53, 2-(2-(4-(2-(8-chloro-7-methyl-[1,2,4]triazolo[4,3-a]pyridin-6-yl)-3-isopropyl-1H-indol-5-yl)piperidin-1-yl)ethyl) isothiazolidine 1,1-dioxide]
0.0005 µM | 0.196 µM | 0.0079 µM | Cc1c(-c2[nH]c3ccc(C4CCN(CCN5CCOC5=O)CC4)cc3c2C(C)C)cn2cnnc2c1C [Example 56, 3-(2-(4-(2-(7,8-dimethyl-[1,2,4]triazolo[4,3-a]pyridin-6-yl)-3-isopropyl-1H-indol-5-yl)piperidin-1-yl)ethyl)oxazolidin-2-one]
